This is an account of results in US8173682B2, “Substituted pyridones as inhibitors of poly(ADP-ribose) polymerase (PARP)” (Aventis Pharmaceuticals Inc., priority 2004, dated 2012).

This experiment has as its target recombinantly expressed human PARP-1 enzyme (Homo sapiens, UniProt P09874). Put plainly: PARP enzyme assay, Method B (tritium-labeled NAD incorporation). The class given is biochemical. Particulars: Method B; 200 μM NAD, room temperature 1 hour, pH 8.0; read-out: IC50 (μM)/Method B. The essentials:
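DNA-activated purified recombinant enzyme (2 μg/mL) incubated with test compound for 1 h at room temperature, pH 8.0, with 200 μM NAD plus tritiated NAD, DNA and histones. TCA-precipitated radiolabelled protein collected on glass-fibre filters and counted; IC50 is the concentration halving incorporation versus no-inhibitor control.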

recombinantly expressed human PARP-1 enzyme, sequence (P09874 whole entry): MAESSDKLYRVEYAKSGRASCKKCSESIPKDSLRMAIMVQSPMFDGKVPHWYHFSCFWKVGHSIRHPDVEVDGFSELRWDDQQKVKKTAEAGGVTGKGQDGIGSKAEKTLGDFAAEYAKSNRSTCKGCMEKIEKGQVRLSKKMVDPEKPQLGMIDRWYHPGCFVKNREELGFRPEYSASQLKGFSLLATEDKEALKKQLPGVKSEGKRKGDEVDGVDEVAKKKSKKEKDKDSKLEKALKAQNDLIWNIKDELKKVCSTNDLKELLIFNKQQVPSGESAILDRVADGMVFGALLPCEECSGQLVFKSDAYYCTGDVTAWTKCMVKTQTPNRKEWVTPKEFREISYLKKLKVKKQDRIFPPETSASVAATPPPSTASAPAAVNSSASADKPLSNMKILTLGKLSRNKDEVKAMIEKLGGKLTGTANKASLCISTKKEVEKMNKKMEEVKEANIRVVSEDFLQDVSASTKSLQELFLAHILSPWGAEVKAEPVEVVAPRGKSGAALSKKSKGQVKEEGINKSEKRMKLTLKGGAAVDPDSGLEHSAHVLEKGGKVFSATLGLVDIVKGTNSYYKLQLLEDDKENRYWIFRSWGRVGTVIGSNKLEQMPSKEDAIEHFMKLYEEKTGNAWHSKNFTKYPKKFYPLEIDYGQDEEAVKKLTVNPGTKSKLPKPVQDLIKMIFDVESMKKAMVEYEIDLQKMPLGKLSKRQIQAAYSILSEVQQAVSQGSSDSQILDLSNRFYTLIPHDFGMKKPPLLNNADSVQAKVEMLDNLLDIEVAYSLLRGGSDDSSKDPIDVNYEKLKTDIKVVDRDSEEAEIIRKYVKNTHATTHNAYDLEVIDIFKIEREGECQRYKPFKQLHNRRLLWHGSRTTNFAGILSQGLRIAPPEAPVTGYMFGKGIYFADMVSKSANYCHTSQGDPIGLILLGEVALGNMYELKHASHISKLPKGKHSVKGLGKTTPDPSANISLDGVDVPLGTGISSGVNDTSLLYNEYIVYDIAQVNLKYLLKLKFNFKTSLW

Turning to `CCc1cc(-c2cncc(C(=O)NCCn3c([N+](=O)[O-])cnc3C)c2)c(C)[nH]c1=O` [Example 249, 5′-Ethyl-2′-methyl-6′-oxo-1′,6′-dihydro-[3,3′]bipyridinyl-5-carboxylic acid [2-(2-methyl-5-nitro-imidazol-1-yl)-ethyl]-amide], the IC50 is 5 µM. The value for `CCc1cc(-c2cncc(C(=O)NCc3nccs3)c2)c(C)[nH]c1=O` [Example 250, 5′-Ethyl-2′-methyl-6′-oxo-1′,6′-dihydro-[3,3′]bipyridinyl-5-carboxylic acid (thiazol-2-ylmethyl)-amide] was 0.64 µM. The value for `CCc1cc(-c2cncc(C(=O)Nc3ccccc3CC(N)=O)c2)c(C)[nH]c1=O` [Example 251, 5′-Ethyl-2′-methyl-6′-oxo-1′,6′-dihydro-[3,3′]bipyridinyl-5-carboxylic acid (2-carbamoylmethyl-phenyl)-amide] was 0.1 µM; that for `CCc1cc(-c2cncc(C(=O)N3CCN(C(=O)C4CC4)CC3)c2)c(C)[nH]c1=O` [Example 252, 5′-(4-Cyclopropanecarbonyl-piperazine-1-carbonyl)-5-ethyl-2-methyl-1H-[3,3′]bipyridinyl-6-one] was 6.1 µM. The value for `CCc1cc(-c2cncc(C(=O)NCC(O)c3ccccc3)c2)c(C)[nH]c1=O` (stereo not drawn) [Example 253, 5′-Ethyl-2′-methyl-6′-oxo-1′,6′-dihydro-[3,3′]bipyridinyl-5-carboxylic acid (2-hydroxy-2-phenyl-ethyl)-amide] was 0.49 µM. Take `CCc1cc(-c2cncc(C(=O)NCCN3C(=O)CSC3=O)c2)c(C)[nH]c1=O` [Example 254, 5′-Ethyl-2′-methyl-6′-oxo-1′,6′-dihydro-[3,3′]bipyridinyl-5-carboxylic acid [2-(2,4-dioxo-thiazolidin-3-yl)-ethyl]-amide]: the IC50 was determined as 11.7 µM.

In the case of `CCc1cc(-c2cncc(C(=O)NCc3ccc(S(N)(=O)=O)cc3)c2)c(C)[nH]c1=O` [Example 255, 5′-Ethyl-2′-methyl-6′-oxo-1′,6′-dihydro-[3,3′]bipyridinyl-5-carboxylic acid 4-sulfamoyl-benzylamide], the IC50 amounted to 0.28 µM. In the case of `CCc1cc(-c2cncc(C(=O)NCC(=O)c3ccc(OC)cc3)c2)c(C)[nH]c1=O` [Example 256, 5′-Ethyl-2′-methyl-6′-oxo-1′,6′-dihydro-[3,3′]bipyridinyl-5-carboxylic acid [2-(4-methoxy-phenyl)-2-oxo-ethyl]-amide], the IC50 turned out to be 0.45 µM. For `CCc1cc(-c2cncc(C(=O)NCC3CC(c4ccncc4)=NO3)c2)c(C)[nH]c1=O` (stereo not drawn) [Example 257, 5′-Ethyl-2′-methyl-6′-oxo-1′,6′-dihydro-[3,3′]bipyridinyl-5-carboxylic acid (3-pyridin-4-yl-4,5-dihydro-isoxazol-5-ylmethyl)-amide] the value was 0.57 µM; for `CCc1cc(-c2cncc(C(=O)Nc3cc(C(C)(C)C)[nH]n3)c2)c(C)[nH]c1=O` [Example 258, 5′-Ethyl-2′-methyl-6′-oxo-1′,6′-dihydro-[3,3′]bipyridinyl-5-carboxylic acid (5-tert-butyl-1H-pyrazol-3-yl)-amide], 0.62 µM.

Regarding `CCc1cc(-c2cncc(C(=O)Nc3cc(C(C)(C)C)on3)c2)c(C)[nH]c1=O` [Example 259, 5′-Ethyl-2′-methyl-6′-oxo-1′,6′-dihydro-[3,3′]bipyridinyl-5-carboxylic acid (5-tert-butyl-isoxazol-3-yl)-amide], the IC50 turned out to be 0.73 µM. For `CCc1cc(-c2cncc(C(=O)N[C@H]3CC=CC[C@H]3C(N)=O)c2)c(C)[nH]c1=O` [Example 260, 5′-Ethyl-2′-methyl-6′-oxo-1′,6′-dihydro-[3,3′]bipyridinyl-5-carboxylic acid ((1S,6R)-6-carbamoyl-cyclohex-3-enyl)-amide] the value was 0.8 µM. For the compound `CCc1cc(-c2cncc(C(=O)NCCOC)c2)c(C)[nH]c1=O` [Example 261, 5′-Ethyl-2′-methyl-6′-oxo-1′,6′-dihydro-[3,3′]bipyridinyl-5-carboxylic acid (2-methoxy-ethyl)-amide], the IC50 is 2.07 µM. The value for `CCc1cc(-c2cncc(C(=O)NCC3CCC(C#N)CC3)c2)c(C)[nH]c1=O` (stereo not drawn) [Example 262, 5′-Ethyl-2′-methyl-6′-oxo-1′,6′-dihydro-[3,3′]bipyridinyl-5-carboxylic acid (4-cyano-cyclohexylmethyl)-amide] was 2.22 µM; that for `CCc1cc(-c2cncc(C(=O)NCc3cccc(OC)c3)c2)c(C)[nH]c1=O` [Example 263, 5′-Ethyl-2′-methyl-6′-oxo-1′,6′-dihydro-[3,3′]bipyridinyl-5-carboxylic acid 3-methoxy-benzylamide] was 2.67 µM; that for `CCc1cc(-c2cncc(C(=O)NCCc3ccccn3)c2)c(C)[nH]c1=O` [Example 264, 5′-Ethyl-2′-methyl-6′-oxo-1′,6′-dihydro-[3,3′]bipyridinyl-5-carboxylic acid (2-pyridin-2-yl-ethyl)-amide] was 3.14 µM.

Regarding `CCc1cc(-c2cncc(C(=O)NCc3ccc(O)c(OC)c3)c2)c(C)[nH]c1=O` [Example 265, 5′-Ethyl-2′-methyl-6′-oxo-1′,6′-dihydro-[3,3′]bipyridinyl-5-carboxylic acid 4-hydroxy-3-methoxy-benzylamide], the IC50 came out at 4.1 µM. For `CCc1cc(-c2ccc(C(C)O)o2)c(C)[nH]c1=O` (stereo not drawn) [Example 268, 3-Ethyl-5-[5-(1-hydroxy-ethyl)-furan-2-yl]-6-methyl-1H-pyridin-2-one] the value was 1.8 µM; for `CCc1cc(-c2ccc(CNC(=O)C3CCCC3)o2)c(C)[nH]c1=O` [Example 269, Cyclopentanecarboxylic acid [5-(5-ethyl-2-methyl-6-oxo-1,6-dihydro-pyridin-3-yl)-furan-2-ylmethyl]-amide], 1.97 µM. For `CCc1cc(-c2ccc(CNC(=O)Cc3ccccc3)o2)c(C)[nH]c1=O` [Example 270, N-[5-(5-Ethyl-2-methyl-6-oxo-1,6-dihydro-pyridin-3-yl)-furan-2-ylmethyl]-2-phenyl-acetamide] the value was 1.18 µM.

As to `CCc1cc(-c2ccc(CNC(=O)c3ccccc3)o2)c(C)[nH]c1=O` [Example 271, N-[5-(5-Ethyl-2-methyl-6-oxo-1,6-dihydro-pyridin-3-yl)-furan-2-ylmethyl]-benzamide], the IC50 stood at 0.5 µM.

As for `CCc1cc(-c2ccc(CNC(=O)c3ccc(OC)cc3)o2)c(C)[nH]c1=O` [Example 272, N-[5-(5-Ethyl-2-methyl-6-oxo-1,6-dihydro-pyridin-3-yl)-furan-2-ylmethyl]-4-methoxy-benzamide], the IC50 came to 0.44 µM. Turning to `CCc1cc(-c2ccc(CNC(=O)c3ccccn3)o2)c(C)[nH]c1=O` [Example 273, Pyridine-2-carboxylic acid [5-(5-ethyl-2-methyl-6-oxo-1,6-dihydro-pyridin-3-yl)-furan-2-ylmethyl]-amide], the IC50 turned out to be 1.4 µM. For `CCc1cc(-c2ccc(CNC(C)=O)o2)c(C)[nH]c1=O` [Example 274, N-[5-(5-Ethyl-2-methyl-6-oxo-1,6-dihydro-pyridin-3-yl)-furan-2-ylmethyl]-acetamide] the value was 0.83 µM; for `CCc1cc(-c2ccc(CNC(=O)c3cccc(N(C)C)c3)o2)c(C)[nH]c1=O` [Example 275, 3-Dimethylamino-N-[5-(5-ethyl-2-methyl-6-oxo-1,6-dihydro-pyridin-3-yl)-furan-2-ylmethyl]-benzamide], 1.26 µM; for `CCc1cc(-c2ccc(CNC(=O)CN3CCCC3)s2)c(C)[nH]c1=O` [Example 276, N-[5-(5-Ethyl-2-methyl-6-oxo-1,6-dihydropyridin-3-yl)-thiophen-2-ylmethyl]-2-pyrrolidin-1-yl-acetamide], 0.8 µM. As to `CCc1cc(-c2cccc(NS(=O)(=O)c3ccc(NC(C)=O)cc3)n2)c(C)[nH]c1=O` [Example 278, N-[4-(5′-Ethyl-2′-methyl-6′-oxo-1′,6′-dihydro-[2,3′]bipyridinyl-6-ylsulfamoyl)-phenyl]-acetamide], the IC50 amounted to 7.9 µM.
